Where two headings read alike, the source gives them in different places.
Assays:
Format in all cases: in vivo
[1] = tested on: canarygrass (Phalaris minor); assay: Test B postemergence plant response
Procedure, shortened: (§1)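 Plants at the 1- to 4-leaf stage (2 to 18 cm tall), grown in pots of peat moss/vermiculite medium with wetting agent and starter nutrients, received postemergence applications of test chemicals. After 13 to 15 days in a greenhouse, injury was rated visually against untreated controls on a 0 (no effect) to 100 (complete control) scale.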

[2] = tested on: windgrass (Apera spica-venti); assay: Test B postemergence plant response
Procedure, shortened: as §1

[3] = tested on: chickweed (Stellaria media); assay: Test B postemergence plant response
Procedure, shortened: as §1

[4] = tested on: giant foxtail (Setaria faberii); assay: Test B pre-/postemergence plant response; conditions: for pest or weed control at 31 g/ha: 31 g ai/ha; for pest or weed control at 125 g/ha: 125 g ai/ha
Procedure, shortened: (§2)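 Ratings reflect visual comparison with untreated controls 13 to 15 days after application, from 0 (no effect) to 100 (complete control). Application was preemergence to seeded loam/sand soil or postemergence to 1- to 4-leaf plants, with compound in a non-phytotoxic, surfactant-containing solvent.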

[5] = tested on: johnsongrass (Sorghum halepense); assay: Test B pre-/postemergence plant response; conditions: for pest or weed control at 31 g/ha: 31 g ai/ha; for pest or weed control at 125 g/ha: 125 g ai/ha
Procedure, shortened: as §2

[6] = tested on: velvetleaf (Abutilon theophrasti); assay: Test B pre-/postemergence plant response; conditions: for pest or weed control at 31 g/ha: 31 g ai/ha; for pest or weed control at 125 g/ha: 125 g ai/ha
Procedure, shortened: as §2

[7] = tested on: blackgrass (Alopecurus myosuroides); assay: Test B pre-/postemergence plant response; conditions: for pest or weed control at 31 g/ha: 31 g ai/ha; for pest or weed control at 125 g/ha: 125 g ai/ha
Procedure, shortened: as §2

wild oat (Avena fatua) = assay: Test B pre-/postemergence plant response; conditions: for pest or weed control at 31 g/ha: 31 g ai/ha; for pest or weed control at 125 g/ha: 125 g ai/ha
Procedure, shortened: as §2

[8] = tested on: wheat (Triticum aestivum); assay: Test B pre-/postemergence plant response; conditions: for plant injury at 31 g/ha: 31 g ai/ha; for plant injury at 125 g/ha: 125 g ai/ha
Procedure, shortened: as §2

[9] = tested on: green foxtail (Setaria viridis); assay: Test B pre-/postemergence plant response
Procedure, shortened: as §2

[10] = 62 g ai/ha, postemergence, 0 is no effect, 100 is complete control, 13 to 15 days
[11] = Preemergence, 250 g ai/ha, 0 to 100 scale

COCCCn1c(-c2ccccc2)ncc(C(=O)C2=C(O)CCCC2=O)c1=O [Compound 81, 5-[(2-hydroxy-6-oxo-cyclohexen-1-yl)carbonyl]-3-(3-methoxypropyl)-2-phenyl-4(3H)-pyrimidinone]
Canarygrass plant response rating (0 to 100 scale) [1, 10]: 5 | pest or weed control at 31 g/ha ([1]; Phalaris minor, post-emergence, 360 h, 31 g ai/ha, postemergence, scale 0 to 100, 0 is no effect, 100 is complete control, read-out: Plant response rating, Canarygrass): 0% | pest or weed control at 125 g/ha ([1]; Phalaris minor, post-emergence, 360 h, Postemergence, 125 g ai/ha, visual rating after 13 to 15 days, scale 0 (no effect) to 100 (complete control)): 10% | pest or weed control at 250 g/ha ([1]; Phalaris minor, post-emergence, 360 h, Postemergence, 250 g ai/ha, scale 0 to 100 (0 no effect, 100 complete control), read-out: Plant response rating, Canarygrass): 20% | Windgrass plant response rating (0 to 100 scale) [2, 10]: 50 | pest or weed control at 31 g/ha ([2]; Apera spica-venti, post-emergence, 360 h, 31 g ai/ha, postemergence, scale 0 to 100, 0 is no effect, 100 is complete control, read-out: Plant response rating, Windgrass): 10% | pest or weed control at 125 g/ha ([2]; Apera spica-venti, post-emergence, 360 h, Postemergence, 125 g ai/ha, visual rating after 13 to 15 days, scale 0 (no effect) to 100 (complete control)): 60% | pest or weed control at 250 g/ha ([2]; Apera spica-venti, post-emergence, 360 h, Postemergence, 250 g ai/ha, scale 0 to 100 (0 no effect, 100 complete control), read-out: Plant response rating, Windgrass): 70% | Chickweed plant response rating (0 to 100 scale) [3, 10]: 98 | pest or weed control at 31 g/ha ([3]; Stellaria media, post-emergence, 360 h, 31 g ai/ha, postemergence, scale 0 to 100, 0 is no effect, 100 is complete control, read-out: Plant response rating, Chickweed): 95% | pest or weed control at 125 g/ha ([3]; Stellaria media, post-emergence, 360 h, Postemergence, 125 g ai/ha, visual rating after 13 to 15 days, scale 0 (no effect) to 100 (complete control)): 98% | pest or weed control at 250 g/ha ([3]; Stellaria media, post-emergence, 360 h, Postemergence, 250 g ai/ha, scale 0 to 100 (0 no effect, 100 complete control), read-out: Plant response rating, Chickweed): 100% | Foxtail, Giant plant response rating (0 to 100 scale) [4, 10]: 85 | Foxtail, Giant plant response rating [4, 11]: 98 | pest or weed control at 31 g/ha ([4]; Setaria faberi, post-emergence, postemergence, scale 0 to 100, 0 is no effect, 100 is complete control, read-out: Plant response rating, Foxtail, Giant): 75% | pest or weed control at 125 g/ha ([4]; Setaria faberi, post-emergence, Postemergence, visual rating after 13 to 15 days, scale 0 (no effect) to 100 (complete control)): 95% | pest or weed control at 250 g/ha ([4]; Setaria faberi, post-emergence, Postemergence, 250 g ai/ha, scale 0 to 100 (0 no effect, 100 complete control), read-out: Plant response rating, Foxtail, Giant): 98% | pest or weed control at 31 g/ha ([4]; Setaria faberi, pre-emergence, Preemergence, scale 0 to 100 (0 no effect, 100 complete control), read-out: Plant response rating, Foxtail, Giant): 60% | pest or weed control at 62 g/ha ([4]; Setaria faberi, pre-emergence, Preemergence, 62 g ai/ha, scale 0 to 100, 0 no effect, 100 complete control, read-out: Plant response rating, Foxtail, Giant): 75% | pest or weed control at 125 g/ha ([4]; Setaria faberi, pre-emergence, Preemergence, scale 0 to 100, 0 no effect, 100 complete control, read-out: Plant response rating, Foxtail, Giant): 85% | Johnsongrass plant response rating (0 to 100 scale) [5, 10]: 10 | Johnsongrass plant response rating [5, 11]: 90 | pest or weed control at 31 g/ha ([5]; Sorghum halepense, post-emergence, postemergence, scale 0 to 100, 0 is no effect, 100 is complete control, read-out: Plant response rating, Johnsongrass): 5% | pest or weed control at 125 g/ha ([5]; Sorghum halepense, post-emergence, Postemergence, visual rating after 13 to 15 days, scale 0 (no effect) to 100 (complete control)): 75% | pest or weed control at 250 g/ha ([5]; Sorghum halepense, post-emergence, Postemergence, 250 g ai/ha, scale 0 to 100 (0 no effect, 100 complete control), read-out: Plant response rating, Johnsongrass): 100% | pest or weed control at 31 g/ha ([5]; Sorghum halepense, pre-emergence, Preemergence, scale 0 to 100 (0 no effect, 100 complete control), read-out: Plant response rating, Johnsongrass): 10% | pest or weed control at 62 g/ha ([5]; Sorghum halepense, pre-emergence, Preemergence, 62 g ai/ha, scale 0 to 100, 0 no effect, 100 complete control, read-out: Plant response rating, Johnsongrass): 80% | pest or weed control at 125 g/ha ([5]; Sorghum halepense, pre-emergence, Preemergence, scale 0 to 100, 0 no effect, 100 complete control, read-out: Plant response rating, Johnsongrass): 90% | Velvetleaf plant response rating (0 to 100 scale) [6, 10]: 100 | pest or weed control at 31 g/ha ([6]; Abutilon theophrasti, post-emergence, 360 h, postemergence, scale 0 to 100, 0 is no effect, 100 is complete control, read-out: Plant response rating, Velvetleaf): 100% | pest or weed control at 125 g/ha ([6]; Abutilon theophrasti, post-emergence, 360 h, Postemergence, visual rating after 13 to 15 days, scale 0 (no effect) to 100 (complete control)): 100% | pest or weed control at 250 g/ha ([6]; Abutilon theophrasti, post-emergence, 360 h, Postemergence, 250 g ai/ha, scale 0 to 100 (0 no effect, 100 complete control), read-out: Plant response rating, Velvetleaf): 100% | pest or weed control at 31 g/ha ([6]; Abutilon theophrasti, pre-emergence, 360 h, Preemergence, scale 0 to 100 (0 no effect, 100 complete control), read-out: Plant response rating, Velvetleaf): 100% | pest or weed control at 62 g/ha ([6]; Abutilon theophrasti, pre-emergence, 360 h, Preemergence, 62 g ai/ha, scale 0 to 100 (0 no effect, 100 complete control), read-out: Plant response rating, Velvetleaf): 100% | pest or weed control at 125 g/ha ([6]; Abutilon theophrasti, pre-emergence, 360 h, Preemergence, scale 0 to 100, 0 no effect, 100 complete control, read-out: Plant response rating, Velvetleaf): 100% | Velvetleaf plant response rating [6, 11]: 100 | Blackgrass plant response rating (0 to 100 scale) [7, 10]: 10 | pest or weed control at 31 g/ha ([7]; Alopecurus myosuroides, post-emergence, 360 h, postemergence, scale 0 to 100, 0 is no effect, 100 is complete control, read-out: Plant response rating, Blackgrass): 5% | pest or weed control at 125 g/ha ([7]; Alopecurus myosuroides, post-emergence, 360 h, Postemergence, visual rating after 13 to 15 days, scale 0 (no effect) to 100 (complete control)): 30% | pest or weed control at 250 g/ha ([7]; Alopecurus myosuroides, post-emergence, 360 h, Postemergence, 250 g ai/ha, scale 0 to 100 (0 no effect, 100 complete control), read-out: Plant response rating, Blackgrass): 30% | pest or weed control at 31 g/ha ([7]; Alopecurus myosuroides, pre-emergence, 360 h, Preemergence, scale 0 to 100 (0 no effect, 100 complete control), read-out: Plant response rating, Blackgrass): 0% | pest or weed control at 62 g/ha ([7]; Alopecurus myosuroides, pre-emergence, 360 h, Preemergence, 62 g ai/ha, scale 0 to 100, 0 no effect, 100 complete control, read-out: Plant response rating, Blackgrass): 0% | pest or weed control at 125 g/ha ([7]; Alopecurus myosuroides, pre-emergence, 360 h, Preemergence, scale 0 to 100, 0 no effect, 100 complete control, read-out: Plant response rating, Blackgrass): 35% | Blackgrass plant response rating [7, 11]: 35 | Oat, Wild plant response rating (0 to 100 scale) (wild oat (Avena fatua); [10]): 35 | pest or weed control at 31 g/ha (wild oat (Avena fatua); Avena fatua, post-emergence, postemergence, scale 0 to 100, 0 is no effect, 100 is complete control, read-out: Plant response rating, Oat, Wild): 25% | pest or weed control at 125 g/ha (wild oat (Avena fatua); Avena fatua, post-emergence, Postemergence, visual rating after 13 to 15 days, scale 0 (no effect) to 100 (complete control)): 50% | pest or weed control at 250 g/ha (wild oat (Avena fatua); Avena fatua, post-emergence, Postemergence, 250 g ai/ha, scale 0 to 100 (0 no effect, 100 complete control), read-out: Plant response rating, Oat, Wild): 55% | pest or weed control at 31 g/ha (wild oat (Avena fatua); Avena fatua, pre-emergence, Preemergence, scale 0 to 100 (0 no effect, 100 complete control), read-out: Plant response rating, Oat, Wild): 0% | pest or weed control at 62 g/ha (wild oat (Avena fatua); Avena fatua, pre-emergence, Preemergence, 62 g ai/ha, scale 0 to 100 (0 no effect, 100 complete control), read-out: Plant response rating, Oat, Wild): 0% | pest or weed control at 125 g/ha (wild oat (Avena fatua); Avena fatua, pre-emergence, Preemergence, scale 0 to 100, 0 no effect, 100 complete control, read-out: Plant response rating, Oat, Wild): 0% | Oat, Wild plant response rating (wild oat (Avena fatua); [11]): 0 | Wheat plant response rating (0 to 100 scale) [8, 10]: 20 | Wheat plant response rating [8, 11]: 0 | plant injury at 31 g/ha ([8]; Triticum aestivum, post-emergence, postemergence, scale 0 to 100, 0 is no effect, 100 is complete control, read-out: Plant response rating, Wheat): 5% | plant injury at 125 g/ha ([8]; Triticum aestivum, post-emergence, Postemergence, visual rating after 13 to 15 days, scale 0 (no effect) to 100 (complete control)): 25% | plant injury at 250 g/ha ([8]; Triticum aestivum, post-emergence, Postemergence, 250 g ai/ha, scale 0 to 100 (0 no effect, 100 complete control), read-out: Plant response rating, Wheat): 25% | plant injury at 31 g/ha ([8]; Triticum aestivum, pre-emergence, Preemergence, scale 0 to 100 (0 no effect, 100 complete control), read-out: Plant response rating, Wheat): 0% | plant injury at 62 g/ha ([8]; Triticum aestivum, pre-emergence, Preemergence, 62 g ai/ha, scale 0 to 100 (0 no effect, 100 complete control), read-out: Plant response rating, Wheat): 0% | plant injury at 125 g/ha ([8]; Triticum aestivum, pre-emergence, Preemergence, scale 0 to 100, 0 no effect, 100 complete control, read-out: Plant response rating, Wheat): 0% | Foxtail, Green plant response rating (0 to 100 scale) [9, 10]: 85 | Foxtail, Green plant response rating [9, 11]: 100 | pest or weed control at 31 g/ha ([9]; Setaria viridis, post-emergence, 31 g ai/ha, postemergence, scale 0 to 100, 0 is no effect, 100 is complete control, read-out: Plant response rating, Foxtail, Green): 5%

— US8952024B2, “Herbicidal pyrimidone derivatives” (E I du Pont de Nemours and Company, priority 2009, dated 2015)
